{"source": "patent US10780069B2", "about": "“Use of GC-1 in transplant related population” (University of Pittsburgh—Of the Commonwealth System of …, priority 2017, dated 2020)", "key": {"liver regeneration": {"tested_on": "liver regeneration", "settings": "rats; Columbano et al. (2008); cited from earlier work"}, "hepatocytes [1]": {"tested_on": "hepatocytes", "assay": "Partial hepatectomy after pretreatment with T3 or GC-1 supplemented diet", "type": "in vivo, mice", "protocol": "(§1) To label dividing hepatocytes, BrdU (5-bromodeoxyuridine) dissolved in drinking water (1 mg/ml) was given to all animals throughout the experiment period. The animals were given food and water ad libitum with a 12-hour light/dark daily cycle.\nAfter 7 days of receiving T3 supplemented diet (n=3) or GC-1 diet (n=3) or standard basal mouse chow (n=3), C57BL/6 male mice underwent partial hepatectomy as described previously (Tan et al. (2006) Gastroenterology 131, 1561-1572). Anesthesia was provided with inhaled Isoflurane. The animals were sacrificed 24 hours post hepatectomy, after Isoflurane anesthesia and cervical dislocation. Serum and liver tissue were harvested for further processing.\n(§2) Four micron liver sections were analyzed by immunohistochemistry for β-Catenin (BD Biosciences, San Jose, Calif.), Cyclin-D1 (Thermo-Scientific, Fremont, Calif.) and PCNA (Santa Cruz Biotechnology, Dallas, Tex.). Briefly, formalin-fixed sections were deparaffinized in graded xylene and alcohol. Endogenous peroxidase was inactivated using 3% hydrogen peroxide (Sigma). For β-Catenin, Cyclin-D1 staining, slides were microwaved in Citrate buffer followed by blocking with Superblock for 10 minutes. Sections were then incubated with secondary anti-mouse (for β-catenin) or anti-rabbit (for Cyclin-D1) horseradish peroxidase-conjugated antibody for 30 minutes.\n(§3) Bromodeoxyuridine (BrdU) was stained with mouse antibody (Becton Dickinson) as previously described (Fanti et al. (2014) Hepatology 59, 2309-2320). Briefly, tissue sections were deparaffinized, exposed to 0.3% hydrogen peroxide in deionized water for 10 minutes to block endogenous peroxidase, treated with 2N HCl, incubated with trypsin 0.1% for 20 minutes and then with normal goat serum for 20 minutes at room temperature. Sections were then incubated overnight in cold room with anti-BrdU monoclonal antibody, followed by biotinylated goat anti-mouse IgG. DAB kit was then applied, and sections were counterstained with hematoxylin. A small segment of intestine was included from each mouse as a positive control for the staining. For quantification of BrdU staining, at least 10 high power fields (400× or 600×) fields each from at least three biological replicates were counted as indicated in the figures. Statistical analysis was performed as described below."}, "[2]": {"tested_on": "preneoplastic hepatocytes", "settings": "resistant-hepatocyte model of hepatocarcinogenesis (T3, rats); Ledda-Columbano 2000, Perra 2009; cited from earlier work"}, "hepatocytes [3]": {"tested_on": "hepatocytes", "assay": "T3- or GC-1-supplemented diet in wild type mice: hepatocyte proliferation", "type": "in vivo", "protocol": "(§4) All studies on mice were performed in strict accordance with Guidelines. Eight-week old male C57BL/6 male mice (Jackson/Charles River) were maintained on a standard laboratory basal diet (Test Diet) (n=4), or fed a T3-supplemented diet (4 mg/Kg of diet, Sigma Chemicals, St. Louis Mo.) (n=4). GC-1 was administered to the eight week-old male C57BL/6 male mice either via GC-1-supplemented diet (5 mg/Kg of diet, Medchem Express) for 8 days (n=4) or via daily intraperitoneal injections (IP) of GC-1 dissolved in DMSO (0.3 mg/kg/dose) for 8 days (n=7). As a control group for injections, DMSO alone was injected daily intraperitoneal (IP) for 8 days (n=5). Mice were sacrificed 24 hours after the last injection.\nas §1, §2, §3"}, "hepatocytes [4]": {"tested_on": "hepatocytes", "assay": "T3 or GC-1 in LRP5-6 LKO mice and littermate controls", "type": "in vivo", "protocol": "Eight to 10 week-old LRP5-6-LKO were obtained from breeding homozygous LRP5-6 double floxed mice with albumin-cre transgenic mice as described previously (Yang et al. (2014) Hepatology 60, 964-976). LRP5-6-LKO or sex matched littermate controls were given either T3-supplemented diet (n=4), basal diet (n=3), IP GC-1 (n=3) or IP DMSO (n=3). Mice were sacrificed at 24 hours after the last IP injection.\nTo label dividing hepatocytes, BrdU (5-bromodeoxyuridine) dissolved in drinking water (1 mg/ml) was given to all animals throughout the experiment period. The animals were given food and water ad libitum with a 12-hour light/dark daily cycle. […]\n(§5) Protein extraction from frozen liver tissue and western blot analysis were performed as previously described (Fanti et al., (2014) Hepatology 59, 2309-2320). For protein extraction, a small amount of frozen liver tissue was obtained (over dry ice) and was homogenized using RIPA buffer with protease and phosphatase inhibitor cocktail (Sigma, St. Louis, Mo.). Samples were transferred to a 1.5 ml tube on ice, and spun in cold room centrifuge at 14,000 RPM for 5 minutes. Pellet was then discarded and sample was aliquoted and stored at −80 C for use. Fifty micrograms of the proteins were resolved by sodium dodecyl sulfate-polyacrylamide gel electrophoresis analysis, and transferred to immobilon-polyvinylidene difluoride membranes.\nThe primary antibodies used were against β-catenin (BD Biosciences); pSer675-β-catenin, pSer552-β-catenin, Active-β-catenin (Cell-Signaling), Cyclin-D1 (Thermo-Scientific), and β-Actin (Sigma). Dilutions of primary antibody were done according to manufacturer recommendations (1:1000 for all except Cyclin-D1 which was 1:200). Horseradish peroxidase-conjugated secondary antibodies used were goat anti-mouse (1:20,000) and goat anti-rabbit (1:10,000) (Millipore). The proteins were detected by Super-Signal West Pico Chemiluminescense Substrate (Thermo Scientific, Rockford Ill.) and visualized by autoradiography. […]"}, "[5]": {"assay": "Serum ALT/bilirubin and hepatic histology after GC-1 or T3", "type": "in vivo, mice", "settings": "T3 (4 mg/Kg of diet) or GC-1 (5 mg/Kg of diet) chow 8 days, vs basal diet", "protocol": "as §4"}, "hepatocytes [6]": {"tested_on": "hepatocytes", "assay": "GC-1 or T3 in hepatocyte specific β-catenin knockout mice (β-Cat LKO) and littermate controls", "type": "in vivo", "protocol": "Eight to 10 week old male hepatocyte specific β-catenin knockout mice (β-cat-LKO) or sex-matched littermate controls obtained from breeding homozygous floxed β-catenin mice and albumin-cre transgenic mice (as described elsewhere (Tan et al., (2006) Gastroenterology 131, 1561-1572)) were given 8 daily IP injections of GC-1 (n=4) or DMSO (n=4) and harvested around 24 hours after the last injection.\nas §1, §2, §3, §5\nThe primary antibodies used were against β-catenin (BD Biosciences); pSer675-β-catenin, pSer552-β-catenin, Active-β-catenin (Cell-Signaling), Cyclin-D1 (Thermo-Scientific), and β-Actin (Sigma). Dilutions of primary antibody were done according to manufacturer recommendations (1:1000 for all except Cyclin-D1 which was 1:200). Horseradish peroxidase-conjugated secondary antibodies used were goat anti-mouse (1:20,000) and goat anti-rabbit (1:10,000) (Millipore). The proteins were detected by Super-Signal West Pico Chemiluminescense Substrate (Thermo Scientific, Rockford Ill.) and visualized by autoradiography.\nTotal RNA was extracted by homogenizing frozen liver tissues in Trizol reagent (Invitrogen, Carlsbad, Calif.) from GC-1-injected β-Cat LKO (n=4) and littermate control mice (n=4); and GC-1-injected LRP5-6 LKO (n=3) and littermate control mice (n=3). […]"}}, "data": [{"smiles": "N[C@@H](Cc1cc(I)c(Oc2ccc(O)c(I)c2)c(I)c1)C(=O)O", "note": "[T3, Triiodothyronine]", "values": [{"measurement": "liver regeneration after partial hepatectomy", "setting": "liver regeneration", "result": "regenerative advantage"}, {"measurement": "survival in a 90% hepatectomy model", "setting": "liver regeneration", "result": "survival advantage"}, {"measurement": "nuclear cyclin-D1 immunohistochemistry at 24 hours after hepatectomy", "setting": "hepatocytes [1]; 24 hours after hepatectomy", "result": "panlobular distribution"}, {"measurement": "hepatocyte proliferative response post hepatectomy, T3 versus GC-1", "setting": "hepatocytes [1]; 24 hours post hepatectomy", "result": "significantly greater hepatocyte proliferative response than GC-1"}, {"measurement": "BrdU positive hepatocyte nuclei at 24 hours after hepatectomy", "setting": "hepatocytes [1]; diet pretreatment, vs basal diet", "result": "pronounced increase"}, {"measurement": "increase in hepatocyte proliferation over the 24-hour liver regeneration period", "setting": "hepatocytes [1]; pre-hepatectomy vs 24 hour-post hepatectomy, same animals, all three mice", "result": "around 2 fold"}, {"measurement": "cyclin-D1 immunohistochemistry in resected lobes at time of hepatectomy", "setting": "hepatocytes [1]; pretreatment livers", "result": "expansion of cyclin-D1 positive hepatocytes in the midzonal area"}, {"measurement": "BrdU-positive hepatocytes in resected lobes at time of hepatectomy", "setting": "hepatocytes [1]; seven-day pretreatment, vs basal diet", "result": "increased BrdU-positive hepatocytes"}, {"measurement": "effect on preneoplastic lesions / carcinogenic process", "setting": "[2]", "result": "accelerate remodeling of chemically-induced preneoplastic lesions"}, {"measurement": "BrdU incorporation", "setting": "hepatocytes [3]; T3 (4 mg/Kg of diet) or GC-1 (5 mg/Kg of diet) chow 8 days, vs basal diet", "result": "increased BrdU incorporation"}, {"measurement": "cyclin-D1 staining in hepatocytes", "setting": "hepatocytes [3]; T3 diet or IP GC-1, 8 days, vs respective controls", "result": "notably increased cyclin-D1 staining"}, {"measurement": "cyclin-D1 staining in hepatocytes", "setting": "hepatocytes [3]; T3 or GC-1 supplemented diet 8 days, vs basal diet", "result": "increased in both groups"}, {"measurement": "BrdU-positive hepatocytes, T3 diet versus IP GC-1", "setting": "hepatocytes [3]; T3 supplemented diet versus IP GC-1, 8 days, p<0.001 between groups", "result": "highest proliferation"}, {"measurement": "pSer675-β-catenin levels, Western blot", "setting": "hepatocytes [4]; LRP5-6-LKO and littermate controls", "result": "comparable or even greater levels"}, {"measurement": "pSer552-β-catenin levels, Western blot", "setting": "hepatocytes [4]; LRP5-6 LKO", "result": "modest increase"}, {"measurement": "active β-catenin levels", "setting": "hepatocytes [4]; LRP5-6 LKO after T3 or GC-1 feeding vs basal diet", "result": "no notable differences"}, {"measurement": "cyclin-D1 protein and mRNA expression", "setting": "hepatocytes [4]; LRP5-6 LKO vs controls", "result": "decreased"}, {"measurement": "numbers of cyclin-D1-positive hepatocytes (immunohistochemistry)", "setting": "hepatocytes [4]; LRP5-6 LKO vs controls", "result": "notably decreased"}, {"measurement": "total β-catenin levels", "setting": "hepatocytes [4]; LRP5-6 LKO vs controls", "result": "comparable levels"}, {"measurement": "number of BrdU-labeled hepatocyte nuclei", "setting": "hepatocytes [4]; LRP5-6 LKO vs controls, T3 diet 4 mg/Kg of diet or GC-1 0.3 mg/Kg/dose IP 8 days", "result": "notable decrease"}, {"measurement": "active β-catenin levels in liver lysates", "setting": "hepatocytes [4]; control mice fed T3 or GC-1 diet for 8 days vs basal diet", "result": "dramatic increase"}, {"measurement": "histological changes in the livers", "setting": "[5]", "result": "no histological changes"}, {"measurement": "active β-catenin, Western blot", "setting": "hepatocytes [6]; β-Cat LKO after T3 or GC-1 treatment", "result": "very faint signal"}, {"measurement": "P-Ser675-β-catenin, Western blot", "setting": "hepatocytes [6]; β-Cat LKO vs controls treated with GC-1 or T3", "result": "absent"}]}]}
